Like-named read-outs stand apart in the source and are kept apart here.
Legend:
Test in all cases: cells
[1] = system: endothelial tube formation in co-cultures of ECFCs and ADSCs treated with VEGF; assay type: cell-based, human
[2] = system: nuclear β-catenin in C2C12 cells; assay type: cell-based
INS-1E cells = assay type: cell-based, rat
NCI-H716 cells = assay type: cell-based, Human
SW480 = assay type: cell-based
HCT116 = assay type: cell-based
HT-29 = assay type: cell-based
RKO = assay type: cell-based
DLD-1 = assay type: cell-based
HeLa cells = assay type: cell-based; details: read-out: CellCycle G2/M
Colo320 = assay type: cell-based
SNU-C1 = assay type: cell-based
[3] = system: HCT116 cells treated with a GSK3β inhibitor; assay type: cell-based
[4] = Homo sapiens, HT-29, read-out: Basal_Viability ATP HT-29
[5] = Homo sapiens; read-out: Anti-Angiogenesis
[6] = Rattus norvegicus, INS-1E, read-out: Insulin Secretion
[7] = Homo sapiens, NCI-H716, read-out: GLP 1 Secretion
[8] = Homo sapiens, SW480, basal, SW480, read-out: Basal_Viability ATP SW480
[9] = Homo sapiens, HCT-116, basal, HCT116, read-out: Basal_Viability ATP HCT116
[10] = Homo sapiens, basal, RKO, read-out: Basal_Viability ATP RKO
[11] = Homo sapiens, DLD-1, basal, DLD-1, read-out: Basal_Viability ATP DLD-1
[12] = Homo sapiens, HeLa, S2 Table, HeLa, 20 = no response at highest concentration
[13] = Homo sapiens, basal, Colo 320, read-out: Basal_Viability ATP Colo 320
[14] = Homo sapiens, SNU-C1, basal, SNU-C1, read-out: Basal_Viability ATP SNU-C1
[15] = Homo sapiens, HCT-116, HCT116 pretreated with GSK3b inhibitor, read-out: GSK3b inh pretreated_Viability ATP HCT116

O=C(NOCC1CC1)c1ccc(F)c(F)c1Nc1ccc(I)cc1Cl [PD-184352, reference compound]
IC50 ([1]; Homo sapiens, read-out: Anti-Angio IC50): 370 nM | IC50 ([1]; Homo sapiens, read-out: Anti-Angiogenesis): 368 nM | EC50 ([2]; Mus musculus, C2C12, read-out: Wnt pot. EC50): > 10000 nM | EC50 (INS-1E cells; Rattus norvegicus, INS-1E, read-out: Ins. sec. EC50): > 10000 nM | EC50 (NCI-H716 cells; Homo sapiens, NCI-H716, read-out: GLP1 sec. EC50): > 10000 nM | IC50 (SW480; Homo sapiens, SW480, 72 h, read-out: SW480 viab. IC50): 5 nM | IC50 (SW480; Homo sapiens, SW480, read-out: Basal_Viability ATP SW480): 4.95 nM | IC50 (HCT116; Homo sapiens, HCT-116, 72 h, read-out: HCT-116 viab. IC50): 2 nM | IC50 (HCT116; Homo sapiens, HCT-116, read-out: Basal_Viability ATP HCT116): 1.79 nM | IC50 (HT-29; Homo sapiens, HT-29, 72 h, read-out: HT-29 viab. IC50): 26 nM | IC50 (HT-29; [4]): 26.3 nM | IC50 (RKO; Homo sapiens, RKO, 72 h, read-out: RKO viab. IC50): 3 nM | IC50 (RKO; Homo sapiens, RKO, read-out: Basal_Viability ATP RKO): 3.19 nM | IC50 (DLD-1; Homo sapiens, DLD-1, 72 h, read-out: DLD-1 viab. IC50): 2200 nM | IC50 (DLD-1; Homo sapiens, DLD-1, read-out: Basal_Viability ATP DLD-1): 2160 nM | EC50 (HeLa cells; Homo sapiens, HeLa): > 10000 nM | IC50 (Colo320; Homo sapiens, COLO 320, 72 h, read-out: Colo320 viab. IC50): 850 nM | IC50 (Colo320; Homo sapiens, COLO 320, read-out: Basal_Viability ATP Colo 320): 848 nM | IC50 (SNU-C1; Homo sapiens, SNU-C1, 72 h, read-out: SNU-C1 viab. IC50): 17 nM | IC50 (SNU-C1; Homo sapiens, SNU-C1, read-out: Basal_Viability ATP SNU-C1): 17.1 nM | IC50 ([3]; Homo sapiens, HCT-116, 72 h, read-out: HCT-116 (GSK3β) viab. IC50): 970 nM | IC50 ([3]; Homo sapiens, HCT-116, read-out: GSK3b inh pretreated_Viability ATP HCT116): 969 nM

CCc1oc2ccccc2c1C(=O)c1cc(Br)c(O)c(Br)c1 [Benzbromarone]
IC50 [1, 5]: > 10000 nM | EC50 ([2]; Mus musculus, C2C12, S2 Table, module primary assay, 20 / 20.1 codes per legend, read-out: Wnt Pathway): > 10000 nM | EC50 (INS-1E cells; [6]): > 10000 nM | EC50 (NCI-H716 cells; [7]): > 20000 nM | IC50 (SW480; [8]): 1740 nM | IC50 (HCT116; [9]): 1060 nM | IC50 (HT-29; Homo sapiens, basal, HT-29, read-out: Basal_Viability ATP HT-29): 1140 nM | IC50 (RKO; [10]): 131 nM | IC50 (DLD-1; [11]): 268 nM | EC50 (HeLa cells; [12]): > 10000 nM | IC50 (Colo320; [13]): > 20000 nM | IC50 (SNU-C1; [14]): 105 nM | IC50 [3, 15]: 66.7 nM

O=C1C(I)=CC(=C(c2cc(I)c(O)c(I)c2)c2ccccc2C(=O)O)C=C1I [Iodotetragnost]
IC50 [1, 5]: > 10000 nM | EC50 ([2]; Mus musculus, C2C12, read-out: Wnt Pathway): > 20000 nM | EC50 (INS-1E cells; [6]): > 10000 nM | EC50 (NCI-H716 cells; [7]): > 10000 nM | IC50 (SW480; [8]): 112 nM | IC50 (HCT116; [9]): 384 nM | IC50 (HT-29; [4]): 5730 nM | IC50 (RKO; [10]): 37.3 nM | IC50 (DLD-1; [11]): 13.2 nM | EC50 (HeLa cells; [12]): > 10000 nM | IC50 (Colo320; [13]): 312 nM | IC50 (SNU-C1; [14]): 3760 nM | IC50 [3, 15]: 54 nM

CCCCCCCCCCCC[N+](C)(C)Cc1ccccc1 [dimethyldodecylbenzylammonium]
IC50 ([1]; read-out: Anti-Angiogenesis): > 10000 nM | EC50 ([2]; S2 Table, module primary assay, 20 / 20.1 codes per legend, read-out: Wnt Pathway): > 10000 nM | EC50 (INS-1E cells; S2 Table, module primary assay, 20 / 20.1 codes per legend, read-out: Insulin Secretion): > 10000 nM | EC50 (NCI-H716 cells; S2 Table, module primary assay, 20 / 20.1 codes per legend, read-out: GLP 1 Secretion): > 10000 nM | IC50 (SW480; basal, SW480, read-out: Basal_Viability ATP SW480): 7950 nM | IC50 (HCT116; basal, HCT116, read-out: Basal_Viability ATP HCT116): 1960 nM | IC50 (HT-29; basal, HT-29, read-out: Basal_Viability ATP HT-29): 465 nM | IC50 (RKO; basal, RKO, read-out: Basal_Viability ATP RKO): 3070 nM | IC50 (DLD-1; basal, DLD-1, read-out: Basal_Viability ATP DLD-1): 738 nM | EC50 (HeLa cells; S2 Table, HeLa, 20 = no response at highest concentration): > 10000 nM | IC50 (Colo320; basal, Colo 320, read-out: Basal_Viability ATP Colo 320): 8990 nM | IC50 (SNU-C1; basal, SNU-C1, read-out: Basal_Viability ATP SNU-C1): 20 nM | IC50 ([3]; HCT116 pretreated with GSK3b inhibitor, read-out: GSK3b inh pretreated_Viability ATP HCT116): > 20000 nM

CCC(COC(=O)c1cc(OC)c(OC)c(OC)c1)(c1ccccc1)N(C)C (centres unmarked)
IC50 ([1]; read-out: Anti-Angiogenesis): > 10000 nM | EC50 ([2]; read-out: Wnt Pathway): > 10000 nM | EC50 (INS-1E cells; read-out: Insulin Secretion): > 10000 nM | EC50 (NCI-H716 cells; read-out: GLP 1 Secretion): > 10000 nM | IC50 (SW480; read-out: Basal_Viability ATP SW480): > 20000 nM | IC50 (HCT116; read-out: Basal_Viability ATP HCT116): > 20000 nM | IC50 (HT-29; read-out: Basal_Viability ATP HT-29): > 20000 nM | IC50 (RKO; read-out: Basal_Viability ATP RKO): 142 nM | IC50 (DLD-1; read-out: Basal_Viability ATP DLD-1): > 20000 nM | EC50 (HeLa cells): > 10000 nM | IC50 (Colo320; read-out: Basal_Viability ATP Colo 320): > 20000 nM | IC50 (SNU-C1; read-out: Basal_Viability ATP SNU-C1): 2450 nM | IC50 ([3]; read-out: GSK3b inh pretreated_Viability ATP HCT116): 1620 nM

From article PMC4503722, “Novel Phenotypic Outcomes Identified for a Public Collection of Approved Drugs from a Publicly Accessible Panel of Assays” (PLoS ONE, 2015)
